In US20240246995A1, “PYRIMIDINONE DERIVATIVE AND PREPARATION METHOD THEREFOR, PHARMACEUTICAL COMPOSITION, AND USE” (SHANGHAI SIMR BIOTECHNOLOGY CO., LTD., priority 2021, published 2024):

Target: T1, Lipoprotein-Related Phospholipase A2 (Lp-PLA2) in Human Plasma (Homo sapiens, UniProt Q13093)
T1 construct: 40 μL of equally-divided and thawed mixed human plasma is pre-added; from tissue; host or cells: mixed (pooled) human plasma
T1 sequence (Q13093 22-441): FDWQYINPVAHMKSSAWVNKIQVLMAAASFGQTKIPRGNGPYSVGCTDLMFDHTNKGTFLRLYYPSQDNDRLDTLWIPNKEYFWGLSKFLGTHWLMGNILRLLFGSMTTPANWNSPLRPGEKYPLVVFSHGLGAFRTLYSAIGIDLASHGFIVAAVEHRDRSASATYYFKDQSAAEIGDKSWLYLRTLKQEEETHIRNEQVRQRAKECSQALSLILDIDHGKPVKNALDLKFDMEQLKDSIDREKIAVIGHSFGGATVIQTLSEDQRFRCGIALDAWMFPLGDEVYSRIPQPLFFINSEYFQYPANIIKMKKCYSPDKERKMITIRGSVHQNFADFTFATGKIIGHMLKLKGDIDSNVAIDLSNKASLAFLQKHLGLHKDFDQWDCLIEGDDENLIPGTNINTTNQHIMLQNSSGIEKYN
Assay: Determination of Lp-PLA2 in human plasma (Thio-PAF assay)
Type: biochemical
Details: mixed human plasma, 2-thio-PAF substrate, 30 minutes pre-incubation at room temperature
Description: Determination of Lipoprotein-Related Phospholipase A2 (Lp-PLA2) in Human Plasma.
Human plasma determination utilizes a thioester analogue of phosphatidylcholine (PAF), where hydrolysis leads to the formation of phospholipids containing free thiol groups. The amount of the thiol groups is continuously determined by reacting with CPM (7-diethylamino-3-(4′-maleimidophenyl)-4-methylcoumarin), which is maleimide with increased fluorescence after Michael addition of the thiol groups. This determination can detect the activity of Lp-PLA2 in human plasma, for example, determined by the specific inhibition of the Lp-PLA2 inhibitors.
Thio-PAF determination, as quenched 75 μL determination, is carried out. A compound source plate is prepared by preparing a 1:3 (volume) series of diluents of each compound in pure DMSO on a 96-well microplate. A Rainin multi-channel pipette is used to transfer 3 μL of a compound on the compound source plate into a 96-well microplate where 57 μL of a determination buffer is pre-added, and the compound on the source plate is diluted by 20 folds. The above determination buffer contains 50 mM HEPES (pH 7.4), 150 mM NaCl, and 1 mM CHAPS. A Rainin multi-channel pipette is used to transfer 1 μL of the compound subjected to 20-fold dilution into a 96-well Greiner 655076 (black) microplate where 40 μL of equally-divided and thawed mixed human plasma is pre-added. The plate is oscillated for 20 seconds in an Elisa plate oscillator to be mixed evenly. After 30 minutes of pre-incubation at the room temperature, a Rainin multi-channel pipette is used to add 10 μL of a substrate solution to a 96-well Greiner 655076 (black) microplate, and the substrate solution contains 2.5 mM 2-thio-PAF [from ethanol mother liquor], 32 μM CPM [from DMSO mother liquor] and 3.2 mM NEM (N-ethylmaleimide) [newly prepared in DMSO for each experiment] in a determination buffer composed of 50 mM HEPES (pH 7.4), 150 mM NaCl, and 1 mM CHAPS. After 2 minutes, 25 μL of a 5% trifluoroacetic acid (TFA) aqueous solution is used for quenching the reaction. The plate is centrifuged at 2000 rpm for 1 minute. A Biotek Synergy H1 (H1MF) Elisa reader is used to read the plate at ex:380/em:485. GraphPad Prism 6.0 and Excel are used for IC50 data, curve, and QC analysis.

In order of falling IC50:
1. N#Cc1c(OCc2ccc(Oc3ccnc(C(F)(F)F)c3)c(F)c2)nc(=O)n2c1N1CCCC1CC2 (stereo not drawn) [Example 64, 2-((3-fluoro-4-((2-(trifluoromethyl)pyrid-4-yl)oxy)benzyl)oxy)-4-oxo-6,7,7a,8,9,10-hexahydro-4H-pyrimidinyl [1,6-a]pyrrolo [1,2-c]pyrimidine-1-nitrile]  5.8 nM
2. COc1c(OCc2cc(F)c(Oc3ccnc(OC(F)(F)F)c3)c(F)c2)nc(=O)n2c1N1C[C@@H]3C[C@@]1(CC2)CO3 [Example 63]  5.5 nM
3. COc1c(OCc2ccc(Oc3ccnc(C(F)(F)F)c3)c(F)c2)nc(=O)n2c1N1C[C@@H]3C[C@@]1(CC2)CO3 [Example 62, (7aS,10S)-2-((3-fluoro-4-((2-(trifluoromethyl)pyrid-4-yl)oxy)benzyl)oxy)-1-methoxy-6,7,10, 11-tetrahydro-4H, 8H-7a,10-methyl-pyrimidinyl [6′,1′:2,3] pyrimidinyl[6,1-c] [1,4]oxazin-4-one]  5.2 nM
